Data reported in ChEMBL document CHEMBL1156584, “Metal-free artificial nucleases based on simple oxime and hydroxylamine scaffolds” (Bioorg Med Chem Lett, 2008).

What was measured:
Escherichia coli [1] = test: Induction of Escherichia coli DH5alpha pBSK-2 DNA cleavage in HEPES buffer at pH 8.0 after 16 hrs by agarose gel electrophoresis
Escherichia coli [2] = test: Ratio of Kcat to Km for induction of Escherichia coli DH5alpha pBSK-2 DNA cleavage in HEPES buffer at pH 8.0 after 16 hrs by agarose gel electrophoresis
Escherichia coli [3] = test: Inhibition of Escherichia coli DH5alpha pBSK-2 DNA cleavage in HEPES buffer at pH 8.0 after 8 hrs by agarose gel electrophoresis in presence of distamycin; design: concentration or dose not given beside the values
Escherichia coli [4] = test: Inhibition of Escherichia coli DH5alpha pBSK-2 DNA cleavage in HEPES buffer at pH 8.0 after 8 hrs by agarose gel electrophoresis in presence of DMSO; design: concentration or dose not given beside the values
Escherichia coli [5] = test: Inhibition of Escherichia coli DH5alpha pBSK-2 DNA cleavage in CHES buffer at pH 9.0 after 8 hrs by agarose gel electrophoresis in presence of glycerol; design: scale not given: the % may be the effect or the level left
Escherichia coli [6] = test: Induction of Escherichia coli DH5alpha pBSK-2 DNA cleavage in CHES buffer at pH 9.0 after 16 hrs by agarose gel electrophoresis
Escherichia coli [7] = test: Ratio of Kcat to Km for induction of Escherichia coli DH5alpha pBSK-2 DNA cleavage in CHES buffer at pH 9.0 after 16 hrs by agarose gel electrophoresis
Escherichia coli [8] = test: Induction of Escherichia coli DH5alpha pBSK-2 DNA cleavage in PIPES buffer at pH 7.0 after 16 hrs by agarose gel electrophoresis
Escherichia coli [9] = test: Ratio of Kcat to Km for induction of Escherichia coli DH5alpha pBSK-2 DNA cleavage in PIPES buffer at pH 7.0 after 16 hrs by agarose gel electrophoresis

Structure (SMILES) | Km (Escherichia coli [1]) | kcat (Escherichia coli [1]) | kcat/Km (Escherichia coli [2]) | Activity (Escherichia coli [3]) | Activity (Escherichia coli [4]) | Activity (Escherichia coli [5]) | Km (Escherichia coli [6]) | kcat (Escherichia coli [6]) | kcat/Km (Escherichia coli [7]) | Km (Escherichia coli [8]) | kcat (Escherichia coli [8]) | kcat/Km (Escherichia coli [9])
ON(Cc1ccccc1)Cc1ccccc1 | 110 µM | 157 ×10⁻³ /hr | 0.398 M⁻¹ s⁻¹ | 10% | 14% | – | – | – | – | – | – | –
NOCc1ccccc1 | – | – | – | 61% | 73% | 71% | 70 µM | 424 ×10⁻³ /hr | 1.68 M⁻¹ s⁻¹ | – | – | –
CN(C)c1ccc(CNO)cc1 | 140 µM | 79 ×10⁻³ /hr | 0.158 M⁻¹ s⁻¹ | 14% | 12% | – | – | – | – | – | – | –
ONCc1ccc2c(c1)OCO2 | 60 µM | 187 ×10⁻³ /hr | 0.869 M⁻¹ s⁻¹ | 20% | 16% | – | – | – | – | – | – | –
CN(C)c1ccc(/C=N/O)cc1 | – | – | – | 2% | 8% | – | – | – | – | 140 µM | 141 ×10⁻³ /hr | 0.28 M⁻¹ s⁻¹
